# Measurements: US7078063B2, “Water soluble extract from plant of Solanum genus and the preparation process thereof, and pharmaceutical composition containing the water soluble extract” (G & E Herbal Biotechnology Co., LTD., priority 2003, dated 2006)
# Tests used:
# H441 = experiment: MTS tetrazolium salt cytotoxicity assay; assay type: cell-based, human; conditions: 12 hrs
# Procedure: Hep3B was incubated in Dulbecco's Modified Eagle's medium (DMEM), while H441 and MCF-7 were incubated in RPMI-1640, both of the media containing 10% fetal bovine serum and 40 mg/L gentamycin.
# The cytotoxicity of cancer cells was determined using tetrazolium salt assay (MTS, Mosmann. T., 1983, Immunol. Meth., 65, 55–63), which was conducted for the calorimetric determination of cell viability according to the manufacturer's procedures (CellTiter 96™ AQ, Promega, Madison, USA).
# Cells were seeded at 1×10^4 cells/well in a 96-well plate and incubated in 5% CO2 incubator at 37° C. for at least 16 hrs. The water-soluble extract from Solanum incanum L. was dissolved in sterile injection water to give different test concentrations, which were added to each cancer-cell incubating medium in the well, and allowed to react for 12 hrs. 20 μl MTS was then added to each well, and the solution was allowed to react for 3 hrs. Upon completion of the reaction, absorbency in each well was determined at 490 nm by using ELISA reader 312e, Bio-TEK. Each value was expressed as means ±SD from three experiments.
# Cytotoxicity was determined by MTS tetrazolium salt assay disclosed in Pharmacological assay 1. […] Data were expressed as means ±SD from three experiments.
# dissolving in water = assay type: physicochemical
# [1] = dried powders, without being pre-treated with DMSO
# [2] = purified from the water-soluble extract by HPLC
SMILES,inhibiting the growth of H441 (H441),dissolving in water (dissolving in water; [1]),dissolving in water (dissolving in water; [2])
C[C@@H]1CC[C@@]2(NC1)O[C@H]1C[C@H]3[C@@H]4CC=C5C[C@@H](O[C@@H]6O[C@H](CO)[C@H](O)[C@H](O[C@@H]7O[C@H](CO)[C@@H](O)[C@H](O)[C@H]7O)[C@H]6O[C@@H]6O[C@@H](C)[C@H](O)[C@@H](O)[C@H]6O)CC[C@]5(C)[C@H]4CC[C@]3(C)[C@H]1[C@@H]2C [solasonine],effectively inhibited,could not dissolve in water,directly dissolved in water
C[C@@H]1CC[C@@]2(NC1)O[C@H]1C[C@H]3[C@@H]4CC=C5C[C@@H](O[C@@H]6O[C@H](CO)[C@@H](O[C@@H]7O[C@@H](C)[C@H](O)[C@@H](O)[C@H]7O)[C@H](O)[C@H]6O[C@@H]6O[C@@H](C)[C@H](O)[C@@H](O)[C@H]6O)CC[C@]5(C)[C@H]4CC[C@]3(C)[C@H]1[C@@H]2C [solamargine],effectively inhibited,could not dissolve in water,directly dissolved in water
